Source: article PMC12430429, “Synthesis, Structure, DNA/BSA Binding, DNA Cleaving, Cytotoxic and SOD Mimetic Activities of Copper(II) Complexes Derived from Methoxybenzylamine Schiff Base Ligands” (Molecules, 2025)

Tests used:
[1] = system: supercoiled DNA plasmid pBR322; assay: DNA cleavage assay (agarose gel electrophoresis); assay type: biochemical; conditions: for Form I (%) / Form II (%) / Form III (%): 3 h, 37 °C, 250 ng pDNA
From the text: The gel electrophoresis separation of the supercoiled DNA plasmid pBR322 induced by prepared copper(II) complexes is shown in Figure 7. […] The cleavage activity of 4a and 4c increased remarkably with increasing concentration.
The DNA cleaving activities were also quantified using the “geneQUANT software” (Cleaver Scientific, UK). Data are expressed as percentage (%) expression of the amount of pDNA that has passed through the effect of the nuclease activity of the copper complex from the uncleaved supercoiled Form I to the cleaved Form II (open-circular pDNA) or Form III (linear pDNA) (Table 5). […] Therefore, each percentage can also be converted to the mass of pDNA turned to Form II or III. For example, for complex 4a at a 1 mM concentration, 41.2% of pDNA was cleaved to Form II, which is 103 ng of pDNA, or at a 3 mM concentration, 46.2% corresponds to 115.5 ng of pDNA. Quantification allows us to compare the specific complexes more precisely. […] Some aggregation might be present at higher concentrations, keeping the amount of reactive monomer at a lower level.
The ability of copper(II) complexes to cleave DNA was examined by following the conversion of supercoiled plasmid DNA (Form I) to the open-circular DNA (Form II) and/or linear DNA (forms using agarose gel electrophoresis to separate the cleavage products.
In general, 250 ng of the DNA plasmid pBBR 322 (in 25 mM TRIS-HCl buffer solution, pH 7.5) was treated with different concentrations (1 mM, 3 mM and 5 mM) of the copper(II) complex (dissolved in DMSO) for 3 h at 37 °C. After that, each reaction was quenched by adding 4 μL of a Smart Glow Loading Dye® (loading buffer solution with 0.01% Safe Green dye, 50% glycerol and 250 mM EDTA, pH 8.0) and the sample subjected to electrophoresis (MyGel Mini electrophoresis system®, Accuris, Edison, NJ, USA) on a 0.9% agarose gel containing TAE buffer (40 mM TRIS, 20 mM acetic acid and 1 mM EDTA) at a voltage of 55 V/40 mA for about 1.5 h. As a “running buffer”, TAE buffer (40 mM TRIS, 20 mM acetic acid and 1 mM EDTA) was used. The resulting gels were visualized with UV light and scanned by a mobile device, an Apple iPhone 11 cam 26 mm f1.8. DNA cleaving activities were quantified using the “geneQUANT software” (version 4.3.9, Cleaver Scientific, Rugby, UK).
In the following tables, the percentage (%) expression of the amount of pDNA that has passed through the effect of the nuclease activity of the copper complex from the uncleaved supercoiled form I to the cleaved form II (open circular pDNA) or form III (linear pDNA). Quantitative evaluation was performed using the […] (Cleaver Scientific, UK). V (tested sample) = 20 ul; c (pDNA) = 250 […]
Figure S2-1: The original gel scan: upper left lines 1 – 4 complex 4a (0 mM, 1 mM, 3mM, 5mM), upper lines 6 – 9 complex 4b (0 mM, 1 mM, 3mM, 5mM), lower lines 1 – 4 complex 4c (0 mM, 1 mM, 3mM, […]
(1 picture or pasted object on this page, not shown here)

[2] = system: HEL cells (human lung fibroblast, normal); assay: MTT cytotoxicity assay, HEL; assay type: cell-based; conditions: 72 h
Procedure: The cytotoxicity study of the prepared copper(II) complexes was performed using the MTT assay on human cell lines—A549 (adenocarcinoma human alveolar basal epithelial cell line), HepG2 (human liver cancer cell line) and HEL (human lung fibroblast cell line, normal cells).
The cytotoxicity of the prepared copper(II) complexes in human cell lines was evaluated using the 3-(4,5-dimethylthiazol-2-yl)-2,5-diphenyltetrazolium bromide (MTT) assay following the protocol by Mosmann. Briefly, A549 (human lung epithelial cells, carcinoma), HepG2 (human liver epithelial cells, carcinoma) and HEL (human lung fibroblast cells, normal) cells were seeded in plastic 96-well plates at a density of 1.5–2 × 10^4 cells per well. […] After the treatment, the samples were washed with phosphate-buffered saline (PBS), followed by 4 h of incubation with 1 mg/mL of MTT. Subsequently, the MTT solution was removed, and the formed formazane solids were dissolved in dimethyl sulfoxide for 30 min. The photometric evaluation (at 540 nm and 690 nm) was carried out using an xMark™ Microplate Absorbance Spectrophotometer (Bio-Rad, Hercules, CA, USA) [88].
A549 (ATCC® CCL-185), HepG2 (ATCC® HB-8065) and HEL299 (ATCC® CCL-137) cells were obtained from Lambda Life (Bratislava, Slovakia). A549 cells were kept in Dulbecco’s Modified Eagle’s Medium (DMEM) supplemented with 10% fetal bovine serum (FBS) and 1% antibiotics (penicillin and streptomycin). HepG2 cells were kept in Williams medium supplemented with 10% fetal bovine serum (FBS) and 1% antibiotics (penicillin and streptomycin). HEL299 cells were kept in Minimum Essential Medium (MEM) supplemented with 10% fetal bovine serum (FBS), 1% antibiotics (penicillin and streptomycin) and 1% non-essential amino acids (NEAA). The cells were cultured in a humidified atmosphere of 5% CO2 at 37 °C. Once the cells reached approximately 80% confluence, they were harvested and subcultured after trypsin treatment.

COc1ccccc1CN=Cc1ccccc1[O-].COc1ccccc1CN=Cc1ccccc1[O-].[Cl-].[Cl-].[Cu+2].[Cu+2] [Complex 4a, [Cu2 (Sal-2-MeOBn)2 Cl2]]
mass of pDNA in Form I ([1]; complex 1 mM, of 250 ng pDNA): 147 ng | mass of pDNA in Form II ([1]; complex 1 mM, of 250 ng pDNA): 103 ng | mass of pDNA in Form I ([1]; complex 3 mM, of 250 ng pDNA): 134,5 ng | mass of pDNA in Form II ([1]; complex 3 mM, of 250 ng pDNA): 115,5 ng | mass of pDNA in Form III ([1]; complex 5 mM, of 250 ng pDNA): 250 ng | Form I (%) ([1]; complex 1 × 10^−3 M): 58,8% | Form II (%) ([1]; complex 1 × 10^−3 M): 41,2% | Form III (%) ([1]; complex 1 × 10^−3 M): 0% | Form I (%) ([1]; complex 3 × 10^−3 M): 53,8% | Form II (%) ([1]; complex 3 × 10^−3 M): 46,2% | Form III (%) ([1]; complex 3 × 10^−3 M): 0% | Form I (%) ([1]; complex 5 × 10^−3 M): 0% | Form II (%) ([1]; complex 5 × 10^−3 M): 0% | IC50 [2]: 65.9 ± 6.9 µM

COc1cccc(CN=Cc2ccccc2[O][Cu][O]c2ccccc2C=NCc2cccc(OC)c2)c1 [Complex 4b, [Cu (Sal-3-MeOBn)2]]
mass of pDNA in Form I ([1]; complex 1 mM, of 250 ng pDNA): 146,25 ng | mass of pDNA in Form II ([1]; complex 1 mM, of 250 ng pDNA): 103,75 ng | mass of pDNA in Form I ([1]; complex 3 mM, of 250 ng pDNA): 140,5 ng | mass of pDNA in Form II ([1]; complex 3 mM, of 250 ng pDNA): 109,5 ng | mass of pDNA in Form I ([1]; complex 5 mM, of 250 ng pDNA): 120,5 ng | mass of pDNA in Form II ([1]; complex 5 mM, of 250 ng pDNA): 129,5 ng | Form I (%) ([1]; complex 1 × 10^−3 M): 58,5% | Form II (%) ([1]; complex 1 × 10^−3 M): 41,5% | Form III (%) ([1]; complex 1 × 10^−3 M): 0% | Form I (%) ([1]; complex 3 × 10^−3 M): 56,2% | Form II (%) ([1]; complex 3 × 10^−3 M): 43,8% | Form III (%) ([1]; complex 3 × 10^−3 M): 0% | Form I (%) ([1]; complex 5 × 10^−3 M): 48,2% | Form II (%) ([1]; complex 5 × 10^−3 M): 51,8% | Form III (%) ([1]; complex 5 × 10^−3 M): 0% | IC50 [2]: 44.3 ± 3.6 µM

COc1ccc(CN=Cc2ccccc2[O-])cc1.COc1ccc(CN=Cc2ccccc2[O-])cc1.[Cl-].[Cl-].[Cu+2].[Cu+2] [Complex 4c, [Cu2 (Sal-4-MeOBn)2 Cl2]]
mass of pDNA in Form I ([1]; complex 1 mM, of 250 ng pDNA): 124,5 ng | mass of pDNA in Form II ([1]; complex 1 mM, of 250 ng pDNA): 125,5 ng | mass of pDNA in Form II ([1]; complex 3 mM, of 250 ng pDNA): 250 ng | mass of pDNA in Form I ([1]; complex 5 mM, of 250 ng pDNA): 11,75 ng | mass of pDNA in Form II ([1]; complex 5 mM, of 250 ng pDNA): 238,25 ng | Form I (%) ([1]; complex 1 × 10^−3 M): 49,8% | Form II (%) ([1]; complex 1 × 10^−3 M): 50,2% | Form III (%) ([1]; complex 1 × 10^−3 M): 0% | Form I (%) ([1]; complex 3 × 10^−3 M): 0% | Form III (%) ([1]; complex 3 × 10^−3 M): 0% | Form I (%) ([1]; complex 5 × 10^−3 M): 4,7% | Form II (%) ([1]; complex 5 × 10^−3 M): 95,3% | Form III (%) ([1]; complex 5 × 10^−3 M): 0% | IC50 [2]: 62.9 ± 6.2 µM
